According to US20080300298A1, “Honokiol Derivates For the Treatment of Proliferative Disorders” (priority 2005, published 2008):

Columns and labels:
SKBR-3 cell = test: MTT proliferation assay; format: cell-based; details: Homo sapiens, SK-BR-3, 24 h, read-out: concentration that reduced viability by 50% (LC50)
Experimental: (§1) Cell lines: All cell lines were obtained from American Type Culture Collection. The breast cancer cell lines used: MCF-7 and BT-474 cells were grown in DMEM medium containing 10% FCS; MDA-MB-231, SK-BR-3, MDA-MB-436 and T47-D cells were grown in RPMI medium containing 10% FCS. The glioblastoma multiforme cell lines (U343 and T98G) were maintained in DMEM modified medium containing 10% FCS.
(§2) 3-(4,5-dimethylthiazol-2-yl)-2,5-diphenyltetrazolium bromide (MTT) proliferation assays: 3×10^3 cells/well were plated in 96-well plates, cultured in the appropriate culture media containing 10% FCS, and treated with either control vehicle or various concentrations of HNK, alone or with a secondary drug, as indicated. All secondary drugs were freshly diluted in growth media and immediately added to cells along with the HNK. After 24 hours of incubation at 37° C., 5% CO2, the cells were cultured for four hours with 10% MTT reagent (5 mg/ml; Sigma-Aldrich, St. Louis, Mo.). The medium was aspirated, and the cells were dissolved by dimethyl sulfoxide (DMSO). Absorbance of the formazan product was measured by an enzyme-linked immunosorbent assay reader (Macintosh).
(§3) HNK inhibits growth of breast cancer cells. Breast cancer cells were treated with different concentrations of HNK for 24 hours, and MTT assays were conducted to assess viability. The selected cell lines have different phenotypes and different expression patterns of the estrogen receptor (ER), Her2 and p53, and thus represent various subclasses of breast cancer. […] Similar analyses were also conducted for two glioblastoma multiforme cell lines, U343 and T98G. Over the same dose-range (10-70 μM), both cell lines were resistant to HNK (FIGS. 34 A, B).

BT-474 cells = test: MTT proliferation assay; format: cell-based; details: Homo sapiens, BT-474, 24 h, read-out: concentration that reduced viability by 50% (LC50)
Experimental: as §1, §2, §3

[1] = system: glioblastoma multiforme cell lines, U343 and T98G; test: MTT proliferation assay; format: cell-based; details: 10-70 μM, 24 hours
Experimental: as §1, §2, §3

[2] = system: SHSY5Y and SHEP neuroblastoma cells; test: cancer cell viability, TSA in combination with honokiol; format: cell-based; details: 0-1 uM TSA alone or in combination with honokiol
Description: In FIG. 43, the effects on cancer cell viability after treatment with trichostatin A (TSA), a histone deacetylase inhibitor, in combination with honokiol were examined.

NFkB in M12.4.1 cells = test: NFkB activation (luciferase assay); format: cell-based, Mouse; details: M12.4.1 cells transfected with hCD40-LMP1; not necessarily to baseline
Experimental: Mouse M12.4.1 cells (1.5×107), stably transfected with hCD40-LMP1 chimeric molecule were transiently transfected with […] 4×NFkB luciferase reporter plasmid and […] Renilla luciferase vector (pRL-null; Promega, Madison, Wis.) by electroporation. Cells (2×10^6 cells/ml) were rested on ice for 15 minutes, treated with medium alone (BCM), 10 mg/ml anti-TNF-a (MP6-XT3; MP6-XT22), or […] Honokiol for 30 minutes, then incubated an additional 6 hours in the presence of BCM, 10 mg/ml anti-(m)ouse or anti-(h)uman CD40 or isotype controls. After stimulation, cells were pelleted, lysed, and assayed for relative luciferase activity (NFkB: Renilla) per manufacturer's protocol (Promega) using a Turner Designs 20/20 luminometer, with settings of 2 second delay followed by 10 second read. (Note: anti-mCD40 reacts with endougenous CD40 and anti-hCD40 reacts with transfected hCD40-LMP1).

[3] = system: apoptosis-related proteins in MCF-7 cells; test: Western blot of apoptosis-related proteins; format: cell-based; details: 24 h
Experimental: Following treatment, the cells were harvested and stained for PI and annexin V, as described in Example 9. (B) is a bar graph in which the results of three independent experiments (HNK 60 μM, 24 h) are shown. Asterix indicates p<0.05. (C) is a series of photographs of the Western blots in which MCF-7 cells were treated with HNK (20 or 40 μM, 24 h), lysed and analyzed by Western blotting for the expression of apoptosis-related proteins.
Western blot analysis: Cells were harvested and lysed for total protein extraction in a buffer containing 50 mM Tris-Cl pH 7.4, 150 mM NaCl and 2% NP-40 together with a protease inhibitor cocktail (Comp). […] Immunoactivity was detected with horseradish peroxidase-conjugated secondary antibody and visualized by Enhanced Chemiluminescence (Pierce, Rockford, Ill.). Quantification of the results was performed using AlphaImager 2000 (Alpha Innotech, San Leandro, Calif.).
HNK induces apoptosis in breast cancer cell lines. […] MCF-7 cells were treated with HNK (60 μM for six or 24 hours) and apoptosis and cell death were assessed using annexin V and PI staining (FIG. 5 A). […] Upregulation of BAX was also noticed, (85% increase at 40 μM compared to control, as analyzed by densitometry) but no significant changes in BCL-2 or BAD levels were observed. […]

C=CCc1ccc(O)c(-c2ccc(O)c(CC=C)c2)c1 [HNK, Honokiol]
CC50 (SKBR-3 cell): 29 µM | CC50 (BT-474 cells): 50 µM | viability of glioblastoma multiforme cell lines [1]: resistant | percent of viable cells, combination with TSA compared with TSA alone [2]: significant decrease in the percent of viable cells | NFkB activation (luciferase assay) (NFkB in M12.4.1 cells): inhibited by honokiol in a dose dependent manner | Upregulation of BAX (densitometry), increase compared to control ([3]; MCF-7, 40 μM): 85% | PARP and caspase 8 levels ([3]; MCF-7, 20 or 40 μM): degradation of poly (ADP-ribose) polymerase (PARP) and decreased levels of caspase 8
